Results published in paper PMC5218480 (PLoS ONE, 2017).

System: MV-4-11 cells
Test: Gene expression microarray analysis (Affymetrix PrimeView) and GSEA
Type: cell-based, human
Parameters: RFU PODN (11730768_x_at) / Fold change /veh PODN (11730768_x_at) / RFU LINC00158 (11744669_a_at) / Fold change /veh LINC00158 (11744669_a_at) / RFU DUSP10 (11751237_a_at) / Fold change /veh DUSP10 (11751237_a_at) / RFU ID3 (11757404_x_at) / Fold change /veh ID3 (11757404_x_at) / RFU PLEKHG5 (11737974_s_at) / Fold change /veh PLEKHG5 (11737974_s_at) / RFU LRRC4B (11730491_at) / Fold change /veh LRRC4B (11730491_at) / RFU GIMAP4 (11747438_a_at) / Fold change /veh GIMAP4 (11747438_a_at) / RFU KRT8 (11758183_x_at) / Fold change /veh KRT8 (11758183_x_at) / RFU CNN1 (11734310_a_at) / Fold change /veh CNN1 (11734310_a_at) / RFU VPS37D (11726825_at) / Fold change /veh VPS37D (11726825_at) / RFU C10orf10 (11716522_x_at) / Fold change /veh C10orf10 (11716522_x_at) / RFU KIR2DL2 /// KIR2DL4 /// KIR2DL5A /// KIR2DL5B /// KIR2DS1 /// KIR2DS2 /// KIR2DS3 /// KIR2DS4 /// KIR3DL3 /// KIR3DL3 /// KIR3DS1 (11738374_at) / Fold change /veh KIR2DL2 /// KIR2DL4 /// KIR2DL5A /// KIR2DL5B /// KIR2DS1 /// KIR2DS2 /// KIR2DS3 /// KIR2DS4 /// KIR3DL3 /// KIR3DL3 /// KIR3DS1 (11738374_at) / RFU C1QL1 (11718748_at) / Fold change /veh C1QL1 (11718748_at) / RFU TMPRSS4 (11747572_a_at) / Fold change /veh TMPRSS4 (11747572_a_at) / RFU HAMP (11756126_x_at) / Fold change /veh HAMP (11756126_x_at) / RFU RNFT2 (11725882_a_at) / Fold change /veh RNFT2 (11725882_a_at) / RFU NR4A2 (11747474_a_at) / Fold change /veh NR4A2 (11747474_a_at) / RFU ABCC12 (11746883_a_at) / Fold change /veh ABCC12 (11746883_a_at) / RFU TMEM136 (11760407_x_at) / Fold change /veh TMEM136 (11760407_x_at) / RFU CLDN22 /// WWC2 (11732394_at) / Fold change /veh CLDN22 /// WWC2 (11732394_at) / RFU HLA-DPB1 (11760878_x_at) / Fold change /veh HLA-DPB1 (11760878_x_at) / RFU SPINT1 (11716480_a_at) / Fold change /veh SPINT1 (11716480_a_at) / RFU GAP43 (11754022_s_at) / Fold change /veh GAP43 (11754022_s_at) / RFU A4GNT (11735810_at) / Fold change /veh A4GNT (11735810_at) / RFU PRB3 (11715151_x_at) / Fold change /veh PRB3 (11715151_x_at) / RFU TUBB4B (11761932_at) / Fold change /veh TUBB4B (11761932_at) / RFU CAPN14 (11732068_a_at) / Fold change /veh CAPN14 (11732068_a_at) / RFU TMCC2 (11721928_a_at) / Fold change /veh TMCC2 (11721928_a_at) / RFU IRGQ (11745062_a_at) / Fold change /veh IRGQ (11745062_a_at) / RFU FAM174B (11720279_a_at) / Fold change /veh FAM174B (11720279_a_at) / RFU TMPRSS4 (11748680_a_at) / Fold change /veh TMPRSS4 (11748680_a_at) / RFU FAM212B (11763350_a_at) / Fold change /veh FAM212B (11763350_a_at) / RFU PLEKHG5 (11743358_a_at) / Fold change /veh PLEKHG5 (11743358_a_at) / RFU ZSCAN30 (11745921_a_at) / Fold change /veh ZSCAN30 (11745921_a_at) / RFU CMKLR1 (11741424_a_at) / Fold change /veh CMKLR1 (11741424_a_at) / RFU LOC101060620 /// MAPK8IP1 (11723275_at) / Fold change /veh LOC101060620 /// MAPK8IP1 (11723275_at) / RFU SPTSSB (11747773_x_at) / Fold change /veh SPTSSB (11747773_x_at) / RFU PRSS12 (11739890_at) / Fold change /veh PRSS12 (11739890_at) / RFU BIN1 (11741810_x_at) / Fold change /veh BIN1 (11741810_x_at) / RFU WNT11 (11732464_a_at) / Fold change /veh WNT11 (11732464_a_at) / RFU C10orf10 (11716521_a_at) / Fold change /veh C10orf10 (11716521_a_at) / RFU C5orf56 (11738089_at) / Fold change /veh C5orf56 (11738089_at) / RFU CYB561 (11721691_x_at) / Fold change /veh CYB561 (11721691_x_at) / RFU ANKRD19P (11752326_a_at) / Fold change /veh ANKRD19P (11752326_a_at) / RFU OR2T12 /// OR2T33 /// OR2T8 (11738714_s_at) / Fold change /veh OR2T12 /// OR2T33 /// OR2T8 (11738714_s_at) / RFU VCAN (11748164_a_at) / Fold change /veh VCAN (11748164_a_at) / RFU JSRP1 (11732532_at) / Fold change /veh JSRP1 (11732532_at) / RFU KRTAP10-11 (11738290_x_at) / Fold change /veh KRTAP10-11 (11738290_x_at) / RFU MYO3A (11730013_a_at) / Fold change /veh MYO3A (11730013_a_at) / RFU EBF3 (11725865_a_at) / Fold change /veh EBF3 (11725865_a_at) / RFU CAMK2N1 (11719241_x_at) / Fold change /veh CAMK2N1 (11719241_x_at) / RFU C5orf56 (11738088_a_at) / Fold change /veh C5orf56 (11738088_a_at) / RFU OLFML3 (11715873_a_at) / Fold change /veh OLFML3 (11715873_a_at) / RFU LOC100653217 /// NTM (11731650_a_at) / Fold change /veh LOC100653217 /// NTM (11731650_a_at) / RFU MAPK11 (11762145_a_at) / Fold change /veh MAPK11 (11762145_a_at) / RFU FIZ1 (11724087_x_at) / Fold change /veh FIZ1 (11724087_x_at) / RFU OASL (11726364_x_at) / Fold change /veh OASL (11726364_x_at) / RFU SOX15 (11748057_x_at) / Fold change /veh SOX15 (11748057_x_at) / RFU CD79A (11719716_a_at) / Fold change /veh CD79A (11719716_a_at) / RFU HIST1H1D (11736915_at) / Fold change /veh HIST1H1D (11736915_at) / RFU CASKIN2 (11723855_a_at) / Fold change /veh CASKIN2 (11723855_a_at) / RFU LOC730098 (11760151_x_at) / Fold change /veh LOC730098 (11760151_x_at) / RFU OR4N2 (11742367_at) / Fold change /veh OR4N2 (11742367_at) / RFU PRRT2 (11749266_a_at) / Fold change /veh PRRT2 (11749266_a_at) / RFU SNX32 (11753110_a_at) / Fold change /veh SNX32 (11753110_a_at) / RFU CDHR5 (11726645_a_at) / Fold change /veh CDHR5 (11726645_a_at) / RFU RCAN1 (11760418_a_at) / Fold change /veh RCAN1 (11760418_a_at) / RFU FAM167A (11723789_a_at) / Fold change /veh FAM167A (11723789_a_at) / RFU FAM26E (11764081_at) / Fold change /veh FAM26E (11764081_at) / RFU ISYNA1 (11749810_s_at) / Fold change /veh ISYNA1 (11749810_s_at) / RFU ACY1 (11761880_at) / Fold change /veh ACY1 (11761880_at) / RFU 11764098_at / Fold change /veh 11764098_at / RFU SAMD14 (11745864_x_at) / Fold change /veh SAMD14 (11745864_x_at) / RFU NPB (11741838_a_at) / Fold change /veh NPB (11741838_a_at) / RFU TMPRSS6 (11731388_a_at) / Fold change /veh TMPRSS6 (11731388_a_at) / RFU KRTAP10-2 (11738614_at) / Fold change /veh KRTAP10-2 (11738614_at) / RFU ARHGAP8 /// PRR5-ARHGAP8 (11727945_x_at) / Fold change /veh ARHGAP8 /// PRR5-ARHGAP8 (11727945_x_at) / RFU KRTAP5-7 /// NADSYN1 (11734609_at) / Fold change /veh KRTAP5-7 /// NADSYN1 (11734609_at) / RFU RASL12 (11751679_a_at) / Fold change /veh RASL12 (11751679_a_at) / RFU CDKN2B (11736163_a_at) / Fold change /veh CDKN2B (11736163_a_at) / RFU PRF1 (11729649_at) / Fold change /veh PRF1 (11729649_at) / RFU, ZNF638 /// ZNF638-IT1 / Fold change vs veh, ZNF638 /// ZNF638-IT1 / RFU, PANK3 / Fold change vs veh, PANK3 / RFU, SH3YL1 / Fold change vs veh, SH3YL1 / RFU, ZEB2 / Fold change vs veh, ZEB2 / RFU, NRIP1 / Fold change vs veh, NRIP1 / RFU, PTTG1IP / Fold change vs veh, PTTG1IP / RFU, CAPN2 / Fold change vs veh, CAPN2 / RFU, MED14 / Fold change vs veh, MED14 / RFU, SNORA58 / Fold change vs veh, SNORA58 / RFU, C1orf63 / Fold change vs veh, C1orf63 / RFU, LRRFIP1 / Fold change vs veh, LRRFIP1 / RFU, NDUFAF7 / Fold change vs veh, NDUFAF7 / RFU, SLC12A2 / Fold change vs veh, SLC12A2 / RFU, IBTK / Fold change vs veh, IBTK / RFU, ESF1 / Fold change vs veh, ESF1 / Fold change vs veh, TMEM50B / RFU, TAOK1 / Fold change vs veh, TAOK1 / RFU, ACBD3 / Fold change vs veh, ACBD3 / RFU, TMA16 / Fold change vs veh, TMA16 / RFU, RWDD3 / Fold change vs veh, RWDD3 / RFU, BCAT1 / Fold change vs veh, BCAT1 / RFU, EDEM3 / Fold change vs veh, EDEM3 / RFU, TMEM33 / Fold change vs veh, TMEM33 / RFU, WDR75 / Fold change vs veh, WDR75 / RFU, AHCTF1 / Fold change vs veh, AHCTF1 / RFU, TFRC / Fold change vs veh, TFRC / RFU, ZDHHC17 / Fold change vs veh, ZDHHC17 / RFU, NOM1 / Fold change vs veh, NOM1 / RFU, ARL8B / Fold change vs veh, ARL8B / RFU, ZBTB11 / Fold change vs veh, ZBTB11 / RFU, TAMM41 / Fold change vs veh, TAMM41 / RFU, KIAA1704 /// LOC100996395 / Fold change vs veh, KIAA1704 /// LOC100996395 / RFU, ING1 / Fold change vs veh, ING1 / RFU, TRMT61B / Fold change vs veh, TRMT61B / RFU, FUBP3 / Fold change vs veh, FUBP3 / RFU, TP53 / Fold change vs veh, TP53 / RFU, TNKS2 / Fold change vs veh, TNKS2 / RFU, ZFP14 / Fold change vs veh, ZFP14 / RFU, ACTR2 / Fold change vs veh, ACTR2 / RFU, PPP3R1 / Fold change vs veh, PPP3R1 / RFU, PIK3R1 / Fold change vs veh, PIK3R1 / RFU, HNRNPA1 / Fold change vs veh, HNRNPA1 / RFU, RNF170 / Fold change vs veh, RNF170 / RFU, ZNF28 / Fold change vs veh, ZNF28 / RFU, RNGTT / Fold change vs veh, RNGTT / RFU, OGT / Fold change vs veh, OGT / RFU, BRD1 / Fold change vs veh, BRD1 / RFU, MARS / Fold change vs veh, MARS / RFU, ZNF655 / Fold change vs veh, ZNF655 / RFU, FAHD1 / Fold change vs veh, FAHD1 / RFU, BDP1 / Fold change vs veh, BDP1 / RFU, LRRCC1 / Fold change vs veh, LRRCC1 / RFU, ARID1A / Fold change vs veh, ARID1A / RFU, ZNF146 / Fold change vs veh, ZNF146 / RFU, ZNF330 / Fold change vs veh, ZNF330 / RFU, GPN3 / Fold change vs veh, GPN3 / RFU, C9orf123 / Fold change vs veh, C9orf123 / RFU, N4BP2L2 / Fold change vs veh, N4BP2L2 / RFU, ARFIP1 / Fold change vs veh, ARFIP1 / RFU, FAM179B / Fold change vs veh, FAM179B / RFU, BCL10 / Fold change vs veh, BCL10 / RFU, UHRF1BP1L / Fold change vs veh, UHRF1BP1L / RFU, BET1 / Fold change vs veh, BET1 / RFU, CNOT2 / Fold change vs veh, CNOT2 / RFU, ZNF268 / Fold change vs veh, ZNF268 / Fold change vs veh, ZNF507 / RFU, DGCR2 / Fold change vs veh, DGCR2 / RFU, WDSUB1 / Fold change vs veh, WDSUB1 / Fold change vs veh, HSP90B1 /// MIR3652 / RFU, ADSS / Fold change vs veh, ADSS / RFU, GK / Fold change vs veh, GK / RFU, ZNF148 / Fold change vs veh, ZNF148 / RFU, TAF9 / Fold change vs veh, TAF9 / RFU, SLC1A5 / Fold change vs veh, SLC1A5 / RFU, SLMO2 / Fold change vs veh, SLMO2 / RFU, ABCC4 / Fold change vs veh, ABCC4 / RFU, LOC101060439 /// RAP1B / Fold change vs veh, LOC101060439 /// RAP1B / RFU, RFX7 / Fold change vs veh, RFX7 / RFU, GTPBP10 / Fold change vs veh, GTPBP10 / RFU, CNEP1R1 / Fold change vs veh, CNEP1R1 / RFU, BIVM-ERCC5 /// ERCC5 / Fold change vs veh, BIVM-ERCC5 /// ERCC5 / RFU, ILF3 / Fold change vs veh, ILF3 / RFU 11762660_at / Fold change /veh 11762660_at / RFU VCAN (11757783_s_at) / Fold change /veh VCAN (11757783_s_at) / RFU DDX43 (11728927_at) / Fold change /veh DDX43 (11728927_at) / RFU KRT8 (11758188_x_at) / Fold change /veh KRT8 (11758188_x_at) / RFU NKD1 (11759106_at) / Fold change /veh NKD1 (11759106_at) / RFU SRD5A1 (11742802_a_at) / Fold change /veh SRD5A1 (11742802_a_at) / RFU TPSAB1 /// TPSB2 (11721975_s_at) / Fold change /veh TPSAB1 /// TPSB2 (11721975_s_at) / RFU GSTM3 (11746129_a_at) / Fold change /veh GSTM3 (11746129_a_at) / RFU IL23R (11737362_x_at) / Fold change /veh IL23R (11737362_x_at) / RFU TMEM51 (11727254_a_at) / Fold change /veh TMEM51 (11727254_a_at) / RFU PIWIL2 (11732686_x_at) / Fold change /veh PIWIL2 (11732686_x_at) / RFU ORM1 (11744905_x_at) / Fold change /veh ORM1 (11744905_x_at) / RFU CCDC152 (11743942_at) / Fold change /veh CCDC152 (11743942_at) / RFU ECM1 (11717891_a_at) / Fold change /veh ECM1 (11717891_a_at) / RFU IL23R (11748794_a_at) / Fold change /veh IL23R (11748794_a_at) / RFU TNFAIP8L3 (11732012_x_at) / Fold change /veh TNFAIP8L3 (11732012_x_at) / RFU MBOAT4 (11741988_at) / Fold change /veh MBOAT4 (11741988_at) / RFU 11764193_at / Fold change /veh 11764193_at / RFU TMEM53 (11763286_at) / Fold change /veh TMEM53 (11763286_at) / RFU MAGEB2 (11727129_at) / Fold change /veh MAGEB2 (11727129_at) / RFU TMEM200A (11744735_a_at) / Fold change /veh TMEM200A (11744735_a_at) / RFU CCDC152 (11751479_a_at) / Fold change /veh CCDC152 (11751479_a_at) / RFU FAM211A (11726209_a_at) / Fold change /veh FAM211A (11726209_a_at) / RFU RGS16 (11746705_a_at) / Fold change /veh RGS16 (11746705_a_at) / RFU VCAN (11755009_s_at) / Fold change /veh VCAN (11755009_s_at) / RFU RHOB (11743442_s_at) / Fold change /veh RHOB (11743442_s_at) / RFU RGS16 (11720943_a_at) / Fold change /veh RGS16 (11720943_a_at) / RFU RGS16 (11720944_at) / Fold change /veh RGS16 (11720944_at) / RFU, VPS4B / Fold change vs veh, VPS4B / RFU, CREB1 / Fold change vs veh, CREB1 / RFU, DNAJC13 / Fold change vs veh, DNAJC13 / RFU, GNAQ / Fold change vs veh, GNAQ / RFU, CDK5R1 / Fold change vs veh, CDK5R1 / RFU, ZRANB3 / Fold change vs veh, ZRANB3 / RFU, CUL4A / Fold change vs veh, CUL4A / RFU, CCNY / Fold change vs veh, CCNY / RFU, UFL1 / Fold change vs veh, UFL1 / RFU, COG3 / Fold change vs veh, COG3 / RFU, DIAPH2 / Fold change vs veh, DIAPH2 / RFU, SKA2 / Fold change vs veh, SKA2 / RFU, AFF3 / Fold change vs veh, AFF3 / RFU, LMF1 / Fold change vs veh, LMF1 / RFU, IPO11 / Fold change vs veh, IPO11 / RFU, DFFB / Fold change vs veh, DFFB / RFU, FOXP1 / Fold change vs veh, FOXP1 / RFU, CARD8 / Fold change vs veh, CARD8 / RFU, STRN3 / Fold change vs veh, STRN3 / RFU, ADK / Fold change vs veh, ADK / RFU, RASSF2 / Fold change vs veh, RASSF2 / RFU, WIPF1 / Fold change vs veh, WIPF1 / RFU, LARP1B / Fold change vs veh, LARP1B / RFU, RASA1 / Fold change vs veh, RASA1 / RFU, RB1 / Fold change vs veh, RB1 / RFU, PPFIA1 / Fold change vs veh, PPFIA1 / RFU, MAT2A / Fold change vs veh, MAT2A / RFU, CCT5 / Fold change vs veh, CCT5 / RFU, WDR92 / Fold change vs veh, WDR92 / RFU, CUX1 / Fold change vs veh, CUX1 / RFU, TTC7A / Fold change vs veh, TTC7A / RFU, TMEM135 / Fold change vs veh, TMEM135 / RFU, DEPTOR / Fold change vs veh, DEPTOR / RFU, CPM / Fold change vs veh, CPM / RFU, DNAJB6 / Fold change vs veh, DNAJB6 / RFU, CACNA2D3 / Fold change vs veh, CACNA2D3 / RFU, DTX4 / Fold change vs veh, DTX4 / RFU, TFCP2 / Fold change vs veh, TFCP2 / RFU, GMCL1 /// GMCL1P1 / Fold change vs veh, GMCL1 /// GMCL1P1 / RFU, AEBP2 / Fold change vs veh, AEBP2 / RFU, SNHG1 /// SNORD22 /// SNORD25 /// SNORD26 /// SNORD27 /// SNORD28 /// SNORD29 /// SNORD31 / Fold change vs veh, SNHG1 /// SNORD22 /// SNORD25 /// SNORD26 /// SNORD27 /// SNORD28 /// SNORD29 /// SNORD31 / Fold change (Aza/veh), C12orf56 (ProbeSet 11735607_a_at) / Fold change (ACY-1035/veh), C12orf56 (ProbeSet 11735607_a_at) / Fold change (Aza/veh), FGFR1OP (ProbeSet 11751329_s_at) / Fold change (ACY-1035/veh), FGFR1OP (ProbeSet 11751329_s_at) / Fold change (Aza/veh), VPS36 (ProbeSet 11739960_a_at) / Fold change (ACY-1035/veh), VPS36 (ProbeSet 11739960_a_at) / RFU SYPL1 (11715823_x_at) / Fold change /veh SYPL1 (11715823_x_at) / RFU IGFBP7 (11715501_s_at) / Fold change /veh IGFBP7 (11715501_s_at) / RFU REEP3 (11722064_at) / Fold change /veh REEP3 (11722064_at) / RFU IGLL1 (11728026_x_at) / Fold change /veh IGLL1 (11728026_x_at): dose or concentration left out as unconfirmed
Settings: MV-4-11 cells, 48 hours

SMILES: Nc1ccc(-c2cccs2)cc1NC(=O)c1ccc2c(c1)cc(C1CC1)n2CCN1CCOCC1 [ACY-1035]
- RFU TPSAB1 /// TPSB2 (11721975_s_at): 19.29 RFU
